The subject of assay [1] is JIM-T1 Trastuzumab-DM1 resistant mammal carcinoma. The experiment in a line: In vitro cytotoxicity (CellTiter-Blue), JIM-T1. It is filed as cell-based. The conditions noted are these: Homo sapiens, JIMT-1; 72 hours of incubation. The protocol:
(§1) The biological activity of the compounds of the invention were studied in vitro on […] human cancer cell lines of different tissular origins: HCT116 colorectal carcinoma; A2780R Cisplatin resistant ovary cancer; MiaPaca2 pancreatic cancer; K562R Doxorubicin resistant chronic myeloid leukaemia; JIM-T1 Trastuzumab-DM1 resistant mammal carcinoma; and HepG2 hepatic carcinoma. The cells selected for this study were incubated at 37° C. in the presence of one of the compounds added to the culture medium at different concentrations. The series of experiments carried out made it possible to determine the degree of toxicity of the compound tested, its effect on cell cycle progression as well as its capacity to induce cell death by apoptosis.
(§2) All the cell lines were maintained in culture at 37° C. in a humid atmosphere containing 5% CO2. Cell viability was evaluated using the reagent CellTiter-Blue™ (Promega, Wis., USA) while respecting the manufacturer's instructions. The cells were seeded in 96 well culture plates at a rate of 5000 cells per […] in 50 μl of culture medium. […] After 2 hours of incubation, the fluorescence emitted was measured at 590 nm after excitation at 560 nm by means of a Victor type fluorescence reader (Perkin-Elmer, USA).

The next assay deals with HUVECs. The experiment in a line: Formation of vascular tubes on Matrigel. It counts as cell-based, human. The conditions noted are these: 5 hours, 10 nM (non-toxic). The protocol:
To determine whether compound 1 disrupts the spatial organisation of endothelial cells into structures similar to vascular capillaries, human endothelial cells (HUVECs) were treated immediately after culturing on Matrigel™ or after 24 hours of culture, in order to allow them to form vascular tubes.
The HUVECs (human endothelial cells derived from the umbilical cord) were cultivated in EGM2 culture medium (Promocell, Germany). The cells were maintained in culture at 37° C. in a humid atmosphere containing 5% CO2.
To evaluate the anti-vascular activity of compound 1, the HUVECs were cultured in 96 well culture plates covered beforehand with an extract of extracellular matrix (Matrigel™, BD Biosciences, Le Pont-de-Claix, France) in which they spontaneously form capillary tubes.
Firstly, we measured the capacity of compound 1 to inhibit the formation of the capillary network. Matrigel™ is deposited in the 96 well culture plates at a rate of 70 μL/well and left to incubate at 37° C. for 45 minutes to enable its polymerisation. 20,000 HUVECs are seeded in each of the wells containing Matrigel™ in the absence or in the presence of different concentrations of compound 1, at a rate of 3 wells per concentration. After 2 hours, 3 hours and 5 hours of incubation at 37° C., the cells are observed and photographed using a TE2000 type optical microscope (Nikon, France), equipped with a camera. […]

In assay [2] the test system is K562R Doxorubicin resistant chronic myeloid leukaemia. The experiment in a line: In vitro cytotoxicity (CellTiter-Blue), K562R. The conditions noted are these: Homo sapiens, K-562R; 72 hours of incubation. It counts as cell-based. The protocol:
as §1, §2

For assay [3], the system named is HCT116 cells. The experiment in a line: Apoptosis, caspase-3/7 activity (Apo-one assay). It counts as cell-based, human. The conditions noted are these: HCT116, 24 h treatment, various concentrations. The protocol: In order to clarify whether compound 1 brings about cell death by apoptosis, the intracellular enzymatic activity of caspases 3 and 7 was evaluated in cultures of HCT116 cells exposed for 24 hours to the action of compound 1.
Apoptosis is measured using the “Apo-one homogeneous caspase-3/7 assay” kit (Promega Co, WI, USA) following the manufacturer's recommendations. Briefly, the cells are seeded in 96 well culture plates at a rate of 50,000 cells per well in 100 μL of culture medium. After 24 hours of incubation, the medium is replaced by 100 μL of culture medium containing different concentrations of compound 1 or 0.1% of DMSO (negative control). After 24 hours of treatment, to each well is added 100 μL of reagent containing the caspase substrate and the buffer for the reaction. After 1 hour incubation, the fluorescence emitted by the cells is measured at 527 nm using a Victor type microplate reader (Perkin-Elmer, USA).

Assay [4] has as its system A2780R Cisplatin resistant ovary cancer. Kind of assay: In vitro cytotoxicity (CellTiter-Blue), A2780R. Particulars: Homo sapiens; 72 hours of incubation. It counts as cell-based. The protocol: as §1, §2
The subject of a further assay is tubulin. The experiment in a line: Tubulin polymerisation inhibition (fluorescence assembly assay). It counts as biochemical, ewe. Particulars: inhibition of 50% of the maximum assembly rate; tubulin 10 μM. The protocol: The tubulin is purified from ewe brains according to the Shelanski method by 2 assembly-disassembly cycles. The mother solution (15-20 mg/mL), stored at −196° C., is thawed and diluted in the assembly buffer (0.1 M MES, 0.5 mM MgCl2, 1 mM EGTA, and 1 mM GTP, pH 6.6) to have a final concentration of 10 μM. Tubulin assembly is monitored by fluorescence on 96 well plates according to the method of Barron et al. (Anal. Biochem. 315 (2003) 49-56). To the solution of tubulin (10 μM, 100 μL per well) is added the inhibitor (DMSO, 1 μL) and the solution is incubated for 45 min at room temperature. GTP (1 mM final) is next added, the solution is rapidly mixed and the fluorescence (λex=350 nm, λem=440 nm) is measured on a Wallac Victor fluorimeter (Perkin Elmer). The determination of the inhibition of 50% of the maximum assembly rate (IC50) is carried out in duplicate or triplicate over 10 concentrations surrounding the IC50.

Assay [5] relates to HCT116 colorectal carcinoma. The experiment in a line: In vitro cytotoxicity (CellTiter-Blue), HCT116. It is filed as cell-based. The conditions noted are these: Homo sapiens, HCT-116; 72 hours of incubation. The protocol: as §1
All the cell lines were maintained in culture at 37° C. in a humid atmosphere containing 5% CO2. Cell viability was evaluated using the reagent CellTiter-Blue™ (Promega, Wis., USA) while respecting the manufacturer's instructions. The cells were seeded in 96 well culture plates at a rate of 5000 cells per […] in 50 μl of culture medium. After 24 hours of culture, the compounds of generic formula (I) dissolved in DMSO were added individually to each of the wells at a rate of 50 μl per well. All the compounds were tested in triplicate for each concentration defined and each experiment was repeated 3 times. After 72 hours of incubation, 20 μL of resazurin were added to each well. After 2 hours of incubation, the fluorescence emitted was measured at 590 nm after excitation at 560 nm by means of a Victor type fluorescence reader (Perkin-Elmer, USA).

Assay [6] concerns HCT116 cells. Kind of assay: Analysis of the cell cycle by flow cytometry. It counts as cell-based, human. Particulars: HCT116, 24 hours of exposure, 5 nM. The protocol:
The HCT116 cells are seeded in 6 well culture plates at a rate of 300,000 cells per well in their respective media described above. After 24 hours of culture, compound 1 was added to each of the wells at different concentrations. After 24 hours of incubation, the cells are collected individually in 15 mL tubes then centrifuged. The cells are next washed twice in cold PBS then re-suspended in 1 mL of PBS, fixed by adding 2 mL of cold absolute ethanol and placed at 4° C. for 1 hour. After centrifugation, the cells are washed twice in PBS then the cell pellet is taken up in 100 μL of 1%. Triton X100. After 30 minutes of incubation at room temperature, 50 μL of RNase A boiled beforehand (1 mg/mL) and 500 μL of propidium iodide (50 μg/mL) are added to each tube and incubated in darkness at room temperature for 30 minutes. The distribution of the number of cells in each of the phases of the cell cycle is next determined by flow cytometry using a FC500 type cytometer (Beckman-Coulter, France).

The test system of assay [7] is MiaPaca2 pancreatic cancer. The experiment in a line: In vitro cytotoxicity (CellTiter-Blue), MiaPaca2. Particulars: Homo sapiens, MIA PaCa-2; 72 hours of incubation. It counts as cell-based. The protocol:
as §1, §2

Turning to `Cc1cc(N(C)c2ccc3c(c2)c2ccccc2n3C)c2ccccc2n1` [Compound 1, N,9-Dimethyl-N-(2-methylquinolin-4-yl)-9H-carbazol-3-amine], the IC50 in assay [1] was 0.36 ± 0.02 nM; in assay [2], 0.277 ± 0.017 nM; in [4], 0.54 ± 0.094 nM; in the assay with tubulin it was 1130 ± 160 nM; in assay [5] it was 0.07 ± 0.09 nM; in assay [7], 0.47 ± 0.01 nM. In addition, the “Number of vascular tubes” value in the assay on HUVECs is on record as “very important decrease in the number of vascular tubes”. For the same compound, the “Induction of apoptosis (caspases 3 and 7 activity)” value in the assay on HCT116 cells [3] was “strong induction of apoptosis”. The “Effect on cell cycle” value in the assay on HCT116 cells [6] is “blocks cellular division in the G2/M phase”.

For the origin of these results see patent US20230203005A1, “COMPOUNDS WITH TUBULIN POLYMERISATION INHIBITORY ACTIVITY AND IMMUNOMODULATORY PROPERTIES” (UNIVERSITE PARIS-SACLAY, priority 2018, published 2023).
